# Results from patent EP2112152A1, “Dihydropteridinones as Plk Inhibitors” (GPC Biotech AG, priority 2008, dated 2009).
# Read-outs that look alike come from different tables or passages of the source.
# Experiments:
# Assay type in all cases: cell-based
# HT-29 = experiment: SRB cell proliferation assay, HT-29; conditions: Homo sapiens
# How it was run: (§1)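 Cells plated 24 h before compound, then exposed 72 h over a concentration range. TCA-fixed, sulforhodamine B-stained, bound dye read at OD520; IC50 derived from % inhibition of proliferation versus DMSO-treated cells.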
# IMR-90 = experiment: SRB cell proliferation assay, IMR-90; conditions: Homo sapiens
# How it was run: as §1
# A-431 = experiment: SRB cell proliferation assay, A-431; conditions: Homo sapiens, 18-Cell Line Panel, skin
# Method: (§2) Cells were exposed to the test compounds at various concentrations appropriate to determine an IC50 for 72 hours. Cell proliferation was measured using the SRB assay according to Shekan et al (J Natl Cancer Inst (1990) 82, 1107-112) in order to estimate the IC50 values shown in Table 3. Briefly, cells were plated in 96 well dishes 24 hours prior to compound addition at the densities specified in Table 5.1. The assay was terminated with the addition of cold TCA to a final concentration of 10% after growth medium has been removed and the plates were incubated over night at 4°C. The plates were then washed 5 times with water and 100µl of a Sulforhodamine B solution (4%) was added to each well. The plates were then incubated for 10 minutes at room temperature before removal of unbound dye by washing with 1% acetic acid. The bound dye was solubilised with 10 mM Trizma base and the absorbance read at OD520.
# (§3) Table 8.1: 18-Cell Line Panel
# A549 = experiment: SRB cell proliferation assay, A549; conditions: Homo sapiens, 18-Cell Line Panel, lung
# Method: as §2, §3
# ACHN = experiment: SRB cell proliferation assay, ACHN; conditions: Homo sapiens, 18-Cell Line Panel, kidney
# Method: as §2, §3
# DU 145 = experiment: SRB cell proliferation assay, DU 145; conditions: Homo sapiens, 18-Cell Line Panel, prostate, read-out: IC50 DU145
# Method: as §2, §3
# MDA-MB-468 = experiment: SRB cell proliferation assay, MDA-MB-468; conditions: Homo sapiens, MDA-MB-468; 18-Cell Line Panel; breast
# Method: as §2, §3
# NCI-H460 = experiment: SRB cell proliferation assay, NCI-H460; conditions: Homo sapiens, 18-Cell Line Panel, NSCLC
# Method: as §2, §3
# OVCAR-3 = experiment: SRB cell proliferation assay, OVCAR-3; conditions: Homo sapiens, 18-Cell Line Panel, ovary
# Method: as §2, §3
# SW620 = experiment: SRB cell proliferation assay, SW620; conditions: Homo sapiens, SW-620; 18-Cell Line Panel; colon
# Method: as §2, §3
# MDA-MB-231 = experiment: SRB cell proliferation assay, MDA-MB-231; conditions: Homo sapiens, 18-Cell Line Panel, breast
# Method: as §2, §3
# SK-MEL-5 = experiment: SRB cell proliferation assay, SK-MEL-5; conditions: Homo sapiens, 18-Cell Line Panel, melanoma
# Method: as §2, §3
# Plk1 = Plk1 (Homo sapiens, UniProt P53350); experiment: Cellular Plk1 kinase activity: nucleophosmin (B23) Ser4 phosphorylation in HCT116 cells (MSD electrochemiluminescence); parameters: host or cells: HCT116; conditions: 100 ng/ml nocodazole, 4 hours after compound addition, read-out: Biochemical IC50 Nucleophosmin assay
# Plk1, sequence (P53350 whole entry, species assumed): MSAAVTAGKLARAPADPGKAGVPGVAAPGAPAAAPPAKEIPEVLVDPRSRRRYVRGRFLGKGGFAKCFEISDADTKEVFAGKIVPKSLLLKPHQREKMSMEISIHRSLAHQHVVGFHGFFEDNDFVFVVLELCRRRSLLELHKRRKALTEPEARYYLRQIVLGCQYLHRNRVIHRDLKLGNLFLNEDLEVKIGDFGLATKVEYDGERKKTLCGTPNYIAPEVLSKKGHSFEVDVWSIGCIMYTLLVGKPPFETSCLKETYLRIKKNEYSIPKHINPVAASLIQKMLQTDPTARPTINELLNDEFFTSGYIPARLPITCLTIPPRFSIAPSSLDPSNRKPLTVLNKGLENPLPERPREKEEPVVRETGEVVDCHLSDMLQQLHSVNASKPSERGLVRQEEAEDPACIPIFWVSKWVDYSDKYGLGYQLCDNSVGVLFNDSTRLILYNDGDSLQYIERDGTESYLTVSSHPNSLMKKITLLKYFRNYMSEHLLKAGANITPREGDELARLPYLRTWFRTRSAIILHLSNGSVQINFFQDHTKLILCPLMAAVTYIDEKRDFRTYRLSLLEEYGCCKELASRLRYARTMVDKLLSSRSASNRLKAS
# How it was run: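 HCT116 cells arrested with 100 ng/ml nocodazole for 20 h, then compound for 4 h before lysis. Nucleophosmin Ser4 phosphorylation quantified by MSD electrochemiluminescence with cross-reactive anti-phospho-Mek1/2 antibody; % inhibition relative to cells without nocodazole, IC50 derived.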
# [1] = HT-29, 18-Cell Line Panel, colon, read-out: IC50 HT-29
# [2] = HT-29, 72 h, 72 hours, SRB assay, read-out: CELLULAR IC50 HT-29
# [3] = 18-Cell Line Panel, lung, read-out: IC50 IMR-90
# [4] = 72 hours, SRB assay, slow cycling cell line, read-out: CELLULAR IC50 IMR-90
IC50 (HT-29; [1]) [nM],IC50 (HT-29; [2]) [nM],IC50 (A-431) [nM],IC50 (A549) [nM],IC50 (ACHN) [nM],IC50 (MDA-MB-468) [nM],IC50 (NCI-H460) [nM],IC50 (OVCAR-3) [nM],IC50 (SW620) [nM],IC50 (MDA-MB-231) [nM],IC50 (SK-MEL-5) [nM],IC50 (Plk1) [nM],Compound,IC50 (IMR-90; [3]) [nM],IC50 (IMR-90; [4]) [nM],IC50 (DU 145) [nM]
< 1000,< 1000,< 1000,< 1000,> 1000,< 1000,< 1000,< 1000,< 1000,> 1000,< 1000,< 100,"CCC1C(=O)N(C)c2cnc(Nc3ccc(C(=O)NC4CCN(C)CC4)cc3OC)nc2N1N(C)C (racemic) [Compound 1, 4-(8-Dimethylamino-7-ethyl-5-methyl-6-oxo-5,6,7,8-tetrahydro-pteridin-2-ylamino)-3-methoxy-N-(1-methyl-piperidin-4-yl)-benzamide]",> 1000,> 1000,< 1000
< 1000,< 1000,< 1000,< 1000,< 1000,> 1000,< 1000,< 1000,< 1000,< 1000,< 1000,< 100,"CCC1C(=O)N(C)c2cnc(Nc3ccc(C(=O)N[C@H]4CC[C@H](N5CCN(CC6CC6)CC5)CC4)cc3OC)nc2N1N(C)C (relative stereo) [Compound 13, N-[trans-4-(4-Cyclopropylmethyl-piperazin-1-yl)-cyclohexyl]-4-(8-dimethylamino-7-ethyl-5-methyl-6-oxo-5,6,7,8-tetrahydro-pteridin-2-ylamino)-3-methoxy-benzamide]",> 1000,> 1000,< 1000
